One experiment concerns the target T1, MMP-2 (Homo sapiens, UniProt P08253).
T1 construct: purchased R & D systems; host or cells: CHO cells
T1 sequence (P08253 110-660): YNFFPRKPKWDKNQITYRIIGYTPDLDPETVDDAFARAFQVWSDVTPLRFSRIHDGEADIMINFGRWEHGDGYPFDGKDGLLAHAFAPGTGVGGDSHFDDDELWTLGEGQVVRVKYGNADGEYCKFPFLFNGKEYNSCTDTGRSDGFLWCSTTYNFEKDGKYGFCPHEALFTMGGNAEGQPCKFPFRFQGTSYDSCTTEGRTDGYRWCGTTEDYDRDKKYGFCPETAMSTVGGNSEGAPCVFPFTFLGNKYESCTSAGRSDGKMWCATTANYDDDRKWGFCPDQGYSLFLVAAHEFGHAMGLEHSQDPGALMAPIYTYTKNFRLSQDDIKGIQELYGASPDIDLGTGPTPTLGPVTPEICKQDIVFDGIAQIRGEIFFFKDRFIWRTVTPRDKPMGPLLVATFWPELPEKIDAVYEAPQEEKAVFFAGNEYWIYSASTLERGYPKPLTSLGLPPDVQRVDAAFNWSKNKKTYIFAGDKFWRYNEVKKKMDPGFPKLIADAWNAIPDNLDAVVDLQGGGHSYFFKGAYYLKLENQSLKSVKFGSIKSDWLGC
Nature of the experiment: MMP-2 gelatin degradation assay. Type of experiment: biochemical. Particulars: gelatin substrate. The method, then:
Compounds 5 and 7 were synthesized as previously reported. Full-length human proMMP-9 was produced by recombinant expression in Sf9 insect cells and purified by gelatin-Sepharose chromatography as previously described. Stable full-length proMMP-9 monomers and trimers were separated by glycerol gradient ultracentrifugation as previously described. ProMMP-9 mixture and the separated monomers and trimers were activated by incubation with the catalytic domain of MMP-3 (cat. No. 444217, Merck Millipore, Darmstadt, Germany) as previously described. […] ADAM17/TACE (Sf 21 (baculovirus)-derived, R & D systems, Minneapolis, MO, USA) was diluted and evaluated in 25 mM Tris, 2.5 μM ZnCl2, 0.005% Brij-35, pH 9.0. All stocks of the compounds were evaluated for the presence of endotoxin using the EndoZyme II assay (Hyglos bioMérieux, Bernried am Starnberger See, Germany). […]
To determine the inhibition of gelatinolytic activity, we used a previously optimized gelatin degradation assay. […] Next, dye-quenched gelatin (DQ™-gelatin, Invitrogen, Carlsbad, CA, USA) was added at a final concentration of 2.5 µg/mL and the increase in fluorescence over time was measured with the CLARIOstar microplate reader (BMG Labtech, Ortenberg, Germany). […]

In the next experiment the target is T2, MMP-14/MT1-MMP (Homo sapiens, UniProt P50281).
T2 construct: purchased R & D systems; host or cells: NS0 cells
As to the kind of experiment: MMP-14 OmniMMP peptide assay. Type of experiment: biochemical. On the procedure: Compounds 5 and 7 were synthesized as previously reported. Full-length human proMMP-9 was produced by recombinant expression in Sf9 insect cells and purified by gelatin-Sepharose chromatography as previously described. Stable full-length proMMP-9 monomers and trimers were separated by glycerol gradient ultracentrifugation as previously described. ProMMP-9 mixture and the separated monomers and trimers were activated by incubation with the catalytic domain of MMP-3 (cat. No. 444217, Merck Millipore, Darmstadt, Germany) as previously described. Activation of proMMP-9 was confirmed by a band shift of ±10 kDa, corresponding to the removal of the auto-inhibitory propeptide domain and by detection of gelatinolytic activity with a previously described gelatin degradation assay. MMP-9 monomers and trimers purified from human neutrophils were purchased (Cat. No. 444,231 and 444232, Sigma-Aldrich, St. Louis, MO, USA). Examples of sample purities and activations can be found in Supplementary Figure S1. Recombinant human proMMP-2 (CHO cell-derived), proMMP-3 (NS0 cell-derived), proMMP-7 (NS0 cell-derived) and proMMP-8 (NS0 cell-derived) were purchased from R & D systems (Minneapolis, MN, USA), dissolved in assay buffer (150 mM NaCl, 5 mM CaCl2, 0.01% Tween-20, 50 mM Tris, pH 7.4) to a concentration of 100 µg/mL and activated by incubation with 1 mM p-aminophenylmercuric acetate for, respectively, 1h, 6h, 2h and 1h. Activation of MMPs was confirmed by a band shift of approximately 10 kDa, corresponding to the removal of the propeptide domain. MMP-14/MT1-MMP (NS0 cell-derived) was also purchased from R & D systems (Minneapolis, MN, USA) and activated by incubation with recombinant human furin (cat. No. 1503-SE-010, R & D systems, Minneapolis, MO, USA) in activation buffer (50 mM Tris, 1 mM CaCl2, 0.5% Brij-35, pH 9) for 1.5 h and activity was tested in assay buffer (50 mM Tris, 3 mM CaCl2, 1 µM ZnCl2, pH 8.5). […] ADAM17/TACE (Sf 21 (baculovirus)-derived, R & D systems, Minneapolis, MO, USA) was diluted and evaluated in 25 mM Tris, 2.5 μM ZnCl2, 0.005% Brij-35, pH 9.0. All stocks of the compounds were evaluated for the presence of endotoxin using the EndoZyme II assay (Hyglos bioMérieux, Bernried am Starnberger See, Germany). […]
To determine the inhibition of gelatinolytic activity, we used a previously optimized gelatin degradation assay. […] Next, dye-quenched gelatin (DQ™-gelatin, Invitrogen, Carlsbad, CA, USA) was added at a final concentration of 2.5 µg/mL and the increase in fluorescence over time was measured with the CLARIOstar microplate reader (BMG Labtech, Ortenberg, Germany). […] Proteolytic activity was determined by linear regression of the fluorescence curve and the percentage inhibition was calculated through comparison with the positive control (no inhibitors). […]

Like-named read-outs stand apart in the source and are kept apart here. Some results are limits rather than exact numbers.

The IC50 is the concentration that gives 50% inhibition. The low end stands for inhibition by little substance, the high end for a need for much substance.

As to `CC(C)[C@H](C(=O)O)N(CCNC(=O)c1ccccc1)S(=O)(=O)c1ccc(-c2ccccc2)cc1` [Compound 5], the IC50 at MMP-2 was 1.72 µM; against MMP-14/MT1-MMP it was more than 1 µM; against MMP-14/MT1-MMP (OmniMMP substrate peptide) it was 14.8 µM.
In the case of `CC(C)[C@H](C(=O)O)N(CCNC(=O)c1cccc(C(=O)NCCN([C@@H](C(=O)O)C(C)C)S(=O)(=O)c2ccc(-c3ccccc3)cc2)c1)S(=O)(=O)c1ccc(-c2ccccc2)cc1` [Compound 7], the figures for the IC50 at MMP-2, on MMP-14/MT1-MMP and at MMP-14/MT1-MMP (OmniMMP substrate peptide) were 0.0048 µM, more than 1 µM and 1.08 µM, respectively.

The values above are taken from article PMC7408547, “Bivalent Inhibitor with Selectivity for Trimeric MMP-9 Amplifies Neutrophil Chemotaxis and Enables Functional Studies on MMP-9 Proteoforms” (Cells, 2020).
